Tests used:
Bcl-xL = target: T1, Bcl-xL (Homo sapiens, UniProt Q07817, DEL45-84); assay: NMR titration of Bcl-xL; format: binding; details: for relative order of affinities, NMR titrations: rank order
T1 construct: His6 (C); made in house
Procedure: To verify this conclusion, NMR titrations of Bcl-xL with BH3I-1s were performed and their Ki values were determined (FIG. 4). […] The BH3I-1s Ki values obtained by the NMR approach agree with the results of both pulldown and SELDI analyses. Therefore, the order of affinities of BH3Is is: BH312′>BH3I-2>BH3I-2″>BH3I-1>BH3I-1′>BH3I-1″>BH3I-1′″.
NMR titration was used to examine whether BH3Iinteracts with the binding pocket of Bcl-xL in a manner similar to Bak BH3 peptide (Hajduk et al., Science 278:497-499, 1997).
Next, changes in Bcl-xL structure upon addition of increasing amounts of BH3Is were determined. Each of the BH3Is induced significant changes in the Bcl-xL structure. The compounds targeted the hydrophobic cleft formed by the BH1, BH2, and BH3 domains on the surface of the Bcl-xL protein, and primarily bound to the area formed by BH1 and BH2 domains.

HeLa cells, Jurkat cells = assay: Cytochrome c release and mitochondrial membrane potential; format: cell-based; details: immunostaining and fractionation, 48 hr
Procedure: FIG. 6D is a set of images of cells showing cytochrome c release induced by BH3Is. HeLa cells were treated with 100 μM BH3I-1 for 48 hr and were then stained with Hoechst (a) or cytochrome c antibody (b). The arrows indicate the position of an apoptotic cell.
FIG. 6E is an image of a Western blot analysis of cytochrome c release from Jurkat cells treated with BH3I-1 (100 μM) or BH3I-2 (50 μM) for 48 hr. Cells were fractionated and soluble (S) and heavy membrane (M) fractions were subjected to Western blot analysis using cytochrome c (Pharmingen) and VDAC (Calbiochem) antibodies.
Next, the role of BH3 Is in inducing the release of cytochrome c from mitochondria was examined.

Jurkat cells [1] = assay: Caspase activation with fluorogenic substrates; format: cell-based; details: for caspase-3-like activity (DEVD.amc) / caspase-9-like activity (LEHD.amc): BH3I-1 100 μM, BH3I-2 50 μM; for time of maximum activation of both caspases: after addition of the BH3I
Procedure: (§1) FIG. 6F is a graph showing the time course of caspase activation in Jurkat cells, as assayed using a QuantiPak kit (Biomol). The cells were treated with 100 μM of BH3I-1 (triangles) or 50 μM of BH3I-2 (squares) for 2, 6, 12, or 24 hr. A fluorescence based assay of caspase-3 (Ac-DEVD-AMC) activity was then performed. The numbers represent relative AMC fluorescence in each sample compared to the value obtained with untreated Jurkat cells incubated for 24 hours, set at 1. Standard deviation values are also shown.
as §1, with “6G” for “6F”, “12” for “12,”, “caspase-9 (Ac-LEHD-AMC)” for “caspase-3 (Ac-DEVD-AMC)”
FIG. 6H is a graph showing the comparison of caspase-9 (Ac-LEHD-AMC) (open bars) and caspase-8 (Ac-IETD-AMC) (closed bars) activation 12 and 24 hr after treatment of Jurkat cells with BH3Is.
To evaluate the activation of caspases by BH3Is, the activation of caspases in the presence of these compounds was measured using the preferred caspase-3 and caspase-9 fluorogenic substrates DEVD.amc and LEHD.amc. […] Activation of both caspases followed an essentially identical time course and reached a maximum 12 hours after addition of the BH3I. If BH3Is induce apoptosis through a mitochondrial pathway, caspase-9 should be activated before caspase-8, since the latter is a mediator of the death receptor pathway at the plasma membrane (Cryns et al., Genes Dev. 12:1551-70, 1998 [published erratum appears in Genes Dev. 13:371, 1999]). Therefore, the levels of caspase-9 and caspase-8 activity were compared by measuring LEHD.amc/IETD.amc cleavage activities.

HeLa cells = assay: Cell death by cellular ATP levels; format: cell-based; details: 48 hours
Procedure: (§2) HeLa cells, U-937 cells, or Jurkat cells, each of which endogenously express both Bak and Bcl-xL, were contacted with each of the BH3I chemical compounds identified above, by adding the compound to the cell culture media. Forty-eight hours after the cells received the chemical compound the cell culture sample was evaluated for the level of cell death that had occurred in response to the chemical compound. The level of cell death was determined by measuring cellular ATP levels, wherein a decrease in cellular ATP levels indicated an increase in cell death. In each cell line, cell death was increased in the sample that received one of the above-identified compounds.

Jurkat cells [2] = assay: Cell death by cellular ATP levels; format: cell-based; details: 48 hours
Procedure: as §2

U-937 cells = assay: Cell death by cellular ATP levels; format: cell-based; details: 48 hours
Procedure: as §2

T1 sequence (Q07817 with tags, fused parts or gaps DEL45-84 limits assumed): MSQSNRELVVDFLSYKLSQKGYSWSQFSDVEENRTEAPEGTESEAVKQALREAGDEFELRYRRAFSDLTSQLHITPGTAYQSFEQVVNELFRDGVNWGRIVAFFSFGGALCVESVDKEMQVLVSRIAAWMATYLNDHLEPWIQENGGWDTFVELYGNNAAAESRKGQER

Row | Structure (SMILES) | NOE magnetization transfer to Bcl-xL residues Y65 and F107 (Bcl-xL) | NMR derived Ki value, compared (Bcl-xL; compared with fluorescence polarization Ki of BH3I-2) | relative order of affinities, NMR titrations (Bcl-xL) | cytochrome c release (HeLa cells, Jurkat cells) | caspase-3-like activity (DEVD.amc) (Jurkat cells [1]) | caspase-9-like activity (LEHD.amc) (Jurkat cells [1]) | time of maximum activation of both caspases (Jurkat cells [1]) | GI50 (HeLa cells) | GI50 (Jurkat cells [2]) | GI50 (U-937 cells)
1 | CC(C)C(C(=O)O)N1C(=O)C(=Cc2ccc(Br)cc2)SC1=S (stereo in doubt) [BH3I-1] | direct contact between BH3I-1 and these residues | lower than the fluorescence polarization assay derived Ki value of BH3I-2 | BH3I-1>BH3I-1′>BH3I-1″>BH3I-1′″ | induced cytochrome c release | increase | increase | 12 h |  |  | 
2 | CC(C)C(C(=O)O)N1C(=O)/C(=C/c2ccccc2)SC1=S (stereo not drawn) [BH3I-1″] |  |  | BH3I-1>BH3I-1′>BH3I-1″>BH3I-1′″ |  |  |  |  |  |  | 
3 | O=C(Nc1cc(S(=O)(=O)c2ccc(Cl)cc2)ccc1Cl)c1cc(Cl)cc(Br)c1O [BH3I-2] |  |  |  | induced cytochrome c release | increase | increase | 12 h | 10 to 15 µM | 10 to 15 µM | 10 to 15 µM
